Test results taken from US8614179B2, “Antibacterial combination therapy for the treatment of gram positive bacterial infections” (E-Therapeutics PLC, priority 2008, dated 2013).
Values after ≈ are worked out from the molar mass of the structure shown. Read-outs that look alike come from different tables or passages of the source.

What was measured:
Clostridium difficile = experiment: MIC against clinical isolates of Clostridium difficile; format: cell-based; conditions: Table 5, miconazole alone or with 0.5 mg/L nisin
Experimental: (§1) In example experiments miconazole nitrate, econazole nitrate and clotrimazole were dissolved in DMSO. Colistin, D-cycloserine, fosfomycin and polymixin B were dissolved in water. Nisin was suspended at 10 mg/mL in 0.02 M HCl, and the supernatant fraction following centrifugation at 10,000 g for 10 mins was used in the following experiments.
(§2) Other solvents that may be used include caster oil, pyridine, and 0.9% saline. For IV administration agents may be solubilised in polyethoxylated caster oil, or cyclodextrins such as sulfobutylether7-βcyclodextrin or hydroxypropyl-β-cyclodextrin and lactic acid. Minimum inhibitory concentrations (MICs) of a range of clinical and control bacterial organisms were measured according to BSAC (British Society for Antimicrobial Chemotherapy) guidelines (Andrews 2001), for single agents. The method of determining MICs of imidazole with colistin, D-cycloserine, fosfomycin, polymixin B, or nisin is described briefly as follows. MICs were measured by agar dilution. Kill curves were performed in accordance with the methods of Garrison and Nuemiller, 2007. Briefly kill profiles were generated by logarithmically plotting mean CFU/mL data over time. Total logarithmic reductions in bacterial counts were determined by subtracting 24 h CFU/mL values from starting inocula.
(§3) Stock solutions were prepared at concentrations of 1000 mg/L and 100 mg/L. To determine the MIC of miconazole, the appropriate amount of each stock solution were added to separate Petri dishes give a range of final concentrations (after the addition of 20 mL molten agar): from 0.12 to 32 mg/L. To determine the MICs of miconazole with the specific agent active on a bacterial cell surface, these concentrations of miconazole were used in addition to a fixed sub-inhibitory amount of the agent active on a bacterial cell surface. […] Volumes (20 mL) of cooled molten IST agar (oxoid) was added to each Petri dish and mixed by swirling. After drying, the plates were stored at 4° C. and protected from light. Plates were used on the day of preparation.
(§4) The test organisms were grown overnight in 5 mL IST broth. Using a dilution in 0.9% saline of 1:100, the appropriate agar plates were inoculated using a multipoint inoculator.
(§5) Agar plates and microtitre plates were incubated at 37° C. in air for 18-20 hours.
(§6) The MIC is the minimum amount of an antibiotic at which there is no visible growth of bacteria. Tiny single colonies or faint hazes were not counted as growth. Synergy was reported if the inhibitory effect of the drugs in combination were greater than the sum of the inhibitory effects of each drug singly. The concentration of miconazole, with or without the cell membrane or cell wall active agent, capable of inhibiting the growth of 50% and 90% of the strains tested is reported as the MIC50 and MIC90 respectively. The range of MICs for each group of bacterial strains is also reported.

[1] = test system: E1 E. gall ATCC 12359 VanC; experiment: organism not typed; format: cell-based; conditions: Table 4; strain E1 E. gall ATCC 12359 VanC; agents singly or miconazole MIC with 2.5 mg/L nisin
Experimental: as §1
as §2, with “Briefly kill profiles were generated by logarithmically plotting mean CFU/mL data over time.” left out, “inocula. […]” for “inocula.”
The MIC is the minimum amount of an antibiotic at which there is no visible growth of bacteria. Tiny single colonies or faint hazes were not counted as growth. […]

VISA = experiment: microbe, parasite or virus in culture; format: cell-based; conditions: Staphylococcus aureus, read-out: MIC
Experimental: as §1, §2, §3, §4, §5, §6

MRSA AND VRE = experiment: MIC by agar dilution, MIC50/MIC90/range over MRSA and VRE strain panel; format: cell-based, Staphylococcus aureus; Enterococci
Experimental: In example experiments miconazole nitrate, econazole nitrate and clotrimazole were dissolved in DMSO. Colistin, D-cycloserine, fosfomycin and polymixin B were dissolved in water.
as §2, with “The method of determining MICs of imidazole with colistin, D-cycloserine, fosfomycin, polymixin B, or nisin is described briefly as follows.” left out
as §3
The test organisms were grown overnight in 5 mL IST broth. Using a dilution in 0.9% saline of 1:100, the appropriate agar plates were inoculated using a multipoint inoculator. […]
as §6, with “Synergy was reported if the inhibitory effect of the drugs in combination were greater than the sum of the inhibitory effects of each drug singly.” left out

[2] = Table 1a, MRSA n = 27, VRE n = 5, miconazole MIC alone or with D-cycloserine fixed at 10 mg/L
[3] = Table 1b, MRSA n = 27, VRE n = 5, miconazole MIC alone or with fosfomycin fixed at 5 mg/L
[4] = Table 1c, MRSA n = 21, VRE n = 3, miconazole MIC alone or with colistin fixed at 5 mg/L
[5] = Table 1e, MRSA n = 21, VRE n = 4, miconazole MIC alone or with nisin fixed at 2.5 mg/L
[6] = Table 3, MRSA n = 27, VRE n = 5, miconazole alone, 1:1 bacitracin to miconazole, or with bacitracin fixed at 2.5 mg/L

Clc1ccc(COC(Cn2ccnc2)c2ccc(Cl)cc2Cl)c(Cl)c1 (stereo not shown) [Miconazole, 1-[2-(2,4-Dichlorophenyl)-2-[(2,4-dichlorophenyl)methoxy]ethyl]-1H-imidazole]
MIC (Clostridium difficile; Clostridioides difficile, C. difficile clinical isolate 184, read-out: MIC): > 16 µg/mL
MIC (Clostridium difficile; C. difficile clinical isolate 5): >16 µg/mL
MIC (Clostridium difficile; C. difficile clinical isolate 23): >16 µg/mL
MIC (Clostridium difficile; C. difficile clinical isolate 28): >16 µg/mL
MIC (Clostridium difficile; C. difficile clinical isolate 30): >16 µg/mL
MIC (Clostridium difficile; C. difficile clinical isolate 31): >16 µg/mL
MIC (Clostridium difficile; C. difficile clinical isolate 41): >16 µg/mL
MIC (Clostridium difficile; C. difficile clinical isolate 47): >16 µg/mL
MIC (Clostridium difficile; C. difficile clinical isolate 57): >16 µg/mL
MIC (Clostridium difficile; C. difficile clinical isolate 58): >16 µg/mL
MIC (Clostridium difficile; C. difficile clinical isolate 77): >16 µg/mL
MIC (Clostridium difficile; C. difficile clinical isolate 83): >16 µg/mL
MIC (Clostridium difficile; C. difficile clinical isolate 84): >16 µg/mL
MIC (Clostridium difficile; C. difficile clinical isolate 87): >16 µg/mL
MIC (Clostridium difficile; C. difficile clinical isolate 96): >16 µg/mL
MIC (Clostridium difficile; C. difficile clinical isolate 97): >16 µg/mL
MIC (Clostridium difficile; C. difficile clinical isolate 98A): >16 µg/mL
MIC (Clostridium difficile; C. difficile clinical isolate 99A): >16 µg/mL
MIC (Clostridium difficile; C. difficile clinical isolate 102): >16 µg/mL
MIC (Clostridium difficile; C. difficile clinical isolate 120): >16 µg/mL
MIC (Clostridium difficile; C. difficile clinical isolate 126): >16 µg/mL
MIC (Clostridium difficile; C. difficile clinical isolate 130): >16 µg/mL
MIC (Clostridium difficile; C. difficile clinical isolate 169): >16 µg/mL
MIC (Clostridium difficile; C. difficile clinical isolate 185): >16 µg/mL
MIC (Clostridium difficile; C. difficile clinical isolate 186): >16 µg/mL
MIC [1]: 1 µg/mL
MIC (VISA; Table 4, strain Mu3ex Japan, agents singly or miconazole MIC with 2.5 mg/L nisin): 2 µg/mL
MIC (VISA; Table 4, strain Mu50ex Japan, agents singly or miconazole MIC with 2.5 mg/L nisin): 1 µg/mL
MIC (VISA; Table 4, strain USA/VISA 5827, agents singly or miconazole MIC with 2.5 mg/L nisin): 2 µg/mL
MIC (VISA; Table 4, strain USA/VISA 5836, agents singly or miconazole MIC with 2.5 mg/L nisin): 4 µg/mL
MIC (VISA; Table 4, strain VISA 3900 UK, agents singly or miconazole MIC with 2.5 mg/L nisin): 2 µg/mL
MIC90 (MRSA AND VRE; 24 h, Table 1d, MRSA n = 21, VRE n = 3, miconazole MIC alone or with polymixin B fixed at 20 mg/L): 4 µg/mL (≈ 9.61 µM)
MIC 50 (MRSA AND VRE; 24 h, Table 1d, MRSA n = 21, VRE n = 3, miconazole MIC alone or with polymixin B fixed at 20 mg/L, read-out: MIC 50): 2 µg/mL (≈ 4.81 µM)
MIC90 (MRSA AND VRE; [2]): 2 µg/mL (≈ 4.81 µM)
MIC Range (MRSA AND VRE; [2]): 0.5 to 8 µg/mL
MIC 50 (MRSA AND VRE; Table 1a, MRSA n = 27, VRE n = 5, miconazole MIC alone or with D-cycloserine fixed at 10 mg/L, read-out: MIC 50): 2 µg/mL (≈ 4.81 µM)
MIC 50 (MRSA AND VRE; [3]): 2 µg/mL (≈ 4.81 µM)
MIC90 (MRSA AND VRE; [3]): 2 µg/mL (≈ 4.81 µM)
MIC Range (MRSA AND VRE; [3]): 0.5 to 8 µg/mL
MIC 50 (MRSA AND VRE; [4]): 2 µg/mL (≈ 4.81 µM)
MIC90 (MRSA AND VRE; [4]): 4 µg/mL (≈ 9.61 µM)
MIC Range (MRSA AND VRE; [4]): 1 to 6 µg/mL
MIC 50 (MRSA AND VRE; [5]): 2 µg/mL (≈ 4.81 µM)
MIC90 (MRSA AND VRE; [5]): 4 µg/mL (≈ 9.61 µM)
MIC Range (MRSA AND VRE; [5]): 0.5 to 8 µg/mL
MIC 50 (MRSA AND VRE; [6]): 2 µg/mL (≈ 4.81 µM)
MIC90 (MRSA AND VRE; [6]): 2 µg/mL (≈ 4.81 µM)
MIC Range (MRSA AND VRE; [6]): 0.5 to 8 µg/mL
MIC Range (MRSA AND VRE; Table 1d, MRSA n = 21, VRE n = 3, miconazole MIC alone or with polymixin B fixed at 20 mg/L): 1 to 6 µg/mL
